Measured values taken from the NIST ThermoML archive (doi:10.1021/je060139a).
Numbers after ± are expanded uncertainties.

Columns and labels:
[1] = xn = mol fraction of the nth substance listed; details: Wilhelmy plate method
[2] = refractive index (Na D-line) (dimensionless); xn = mol fraction of the nth substance listed; details: 100.5 kPa, Liquid, Standard Abbe refractometry

CCOC(=O)CC(C)C [ethyl 3-methylbutanoate] + CCO
Details	refractive index, [2]	surface tension liquid-gas, [1] [mN/m]
288.15 K, x1 = 0.05	1.3677 ± 0.00031	23.14 ± 0.4
288.15 K, x1 = 0.1	1.37142 ± 0.00031	23.26 ± 0.4
288.15 K, x1 = 0.15	1.37464 ± 0.00032	23.37 ± 0.4
288.15 K, x1 = 0.2	1.37745 ± 0.00032	23.46 ± 0.4
288.15 K, x1 = 0.25	1.37993 ± 0.00032	23.55 ± 0.4
288.15 K, x1 = 0.3	1.38213 ± 0.00032	23.62 ± 0.4
288.15 K, x1 = 0.35	1.3841 ± 0.00032	23.69 ± 0.4
288.15 K, x1 = 0.4	1.38587 ± 0.00033	23.76 ± 0.4
288.15 K, x1 = 0.45	1.38748 ± 0.00033	23.82 ± 0.4
288.15 K, x1 = 0.5	1.38894 ± 0.00033	23.88 ± 0.41
288.15 K, x1 = 0.55	1.39028 ± 0.00034	23.93 ± 0.41
288.15 K, x1 = 0.6	1.39151 ± 0.00034	23.99 ± 0.41
288.15 K, x1 = 0.65	1.39264 ± 0.00034	24.04 ± 0.41
288.15 K, x1 = 0.7	1.39369 ± 0.00035	24.09 ± 0.41
288.15 K, x1 = 0.75	1.39467 ± 0.00035	24.15 ± 0.41
288.15 K, x1 = 0.8	1.39559 ± 0.00035	24.2 ± 0.41
288.15 K, x1 = 0.85	1.39646 ± 0.00036	24.25 ± 0.41
288.15 K, x1 = 0.9	1.39729 ± 0.00036	24.3 ± 0.42
288.15 K, x1 = 0.95	1.39807 ± 0.00037	24.35 ± 0.42
288.15 K, x1 = 1	1.3988 ± 0.00037	24.4 ± 0.42
298.18 K, x1 = 0.05	1.36363 ± 0.00031	22.4 ± 0.4
298.18 K, x1 = 0.1	1.36724 ± 0.00032	22.5 ± 0.4
298.18 K, x1 = 0.15	1.37038 ± 0.00032	22.58 ± 0.4
298.18 K, x1 = 0.2	1.37312 ± 0.00032	22.66 ± 0.4
298.18 K, x1 = 0.25	1.37554 ± 0.00032	22.73 ± 0.4
298.18 K, x1 = 0.3	1.37769 ± 0.00032	22.79 ± 0.4
298.18 K, x1 = 0.35	1.37961 ± 0.00032	22.85 ± 0.4
298.18 K, x1 = 0.4	1.38134 ± 0.00033	22.91 ± 0.4
298.18 K, x1 = 0.45	1.38291 ± 0.00033	22.96 ± 0.4
298.18 K, x1 = 0.5	1.38434 ± 0.00033	23 ± 0.41
298.18 K, x1 = 0.55	1.38564 ± 0.00034	23.05 ± 0.41
298.18 K, x1 = 0.6	1.38684 ± 0.00034	23.1 ± 0.41
298.18 K, x1 = 0.65	1.38795 ± 0.00034	23.15 ± 0.41
298.18 K, x1 = 0.7	1.38897 ± 0.00035	23.2 ± 0.41
298.18 K, x1 = 0.75	1.38993 ± 0.00035	23.26 ± 0.41
298.18 K, x1 = 0.8	1.39083 ± 0.00035	23.31 ± 0.41
298.18 K, x1 = 0.85	1.39169 ± 0.00036	23.35 ± 0.41
298.18 K, x1 = 0.9	1.3925 ± 0.00036	23.4 ± 0.41
298.18 K, x1 = 0.95	1.39328 ± 0.00037	23.45 ± 0.42
298.18 K, x1 = 1	1.39401 ± 0.00037	23.5 ± 0.42
308.15 K, x1 = 0.05	1.35942 ± 0.00031	21.57 ± 0.4
308.15 K, x1 = 0.1	1.36295 ± 0.00032	21.64 ± 0.4
308.15 K, x1 = 0.15	1.36603 ± 0.00032	21.7 ± 0.4
308.15 K, x1 = 0.2	1.36872 ± 0.00032	21.76 ± 0.4
308.15 K, x1 = 0.25	1.3711 ± 0.00032	21.81 ± 0.4
308.15 K, x1 = 0.3	1.37321 ± 0.00032	21.86 ± 0.4
308.15 K, x1 = 0.35	1.3751 ± 0.00032	21.91 ± 0.4
308.15 K, x1 = 0.4	1.3768 ± 0.00033	21.96 ± 0.4
308.15 K, x1 = 0.45	1.37834 ± 0.00033	22 ± 0.4
308.15 K, x1 = 0.5	1.37974 ± 0.00033	–
308.15 K, x1 = 0.55	1.38102 ± 0.00034	22.04 ± 0.41
308.15 K, x1 = 0.6	1.3822 ± 0.00034	22.08 ± 0.41
308.15 K, x1 = 0.65	1.38329 ± 0.00034	22.13 ± 0.41
308.15 K, x1 = 0.7	1.3843 ± 0.00035	22.17 ± 0.41
308.15 K, x1 = 0.75	1.38524 ± 0.00035	22.22 ± 0.41
308.15 K, x1 = 0.8	1.38613 ± 0.00035	22.27 ± 0.41
308.15 K, x1 = 0.85	1.38698 ± 0.00036	22.31 ± 0.41
308.15 K, x1 = 0.9	1.38779 ± 0.00036	22.36 ± 0.41
308.15 K, x1 = 0.95	1.38857 ± 0.00037	22.41 ± 0.41
308.15 K, x1 = 1	1.38931 ± 0.00037	22.45 ± 0.42
318.15 K, x1 = 0.05	1.35545 ± 0.00031	20.65 ± 0.4
318.15 K, x1 = 0.1	1.35888 ± 0.00032	20.72 ± 0.4
318.15 K, x1 = 0.15	1.36186 ± 0.00032	20.78 ± 0.4
318.15 K, x1 = 0.2	1.36447 ± 0.00032	20.83 ± 0.4
318.15 K, x1 = 0.25	1.36679 ± 0.00032	20.88 ± 0.4
318.15 K, x1 = 0.3	1.36884 ± 0.00032	20.94 ± 0.4
318.15 K, x1 = 0.35	1.37068 ± 0.00032	20.99 ± 0.4
318.15 K, x1 = 0.4	1.37233 ± 0.00033	21.03 ± 0.4
318.15 K, x1 = 0.45	1.37383 ± 0.00033	21.08 ± 0.4
318.15 K, x1 = 0.5	1.37519 ± 0.00033	21.12 ± 0.4
318.15 K, x1 = 0.55	1.37644 ± 0.00034	21.17 ± 0.41
318.15 K, x1 = 0.6	1.37759 ± 0.00034	21.21 ± 0.41
318.15 K, x1 = 0.65	1.37865 ± 0.00034	21.26 ± 0.41
318.15 K, x1 = 0.7	1.37964 ± 0.00035	21.3 ± 0.41
318.15 K, x1 = 0.75	1.38056 ± 0.00035	21.35 ± 0.41
318.15 K, x1 = 0.8	1.38143 ± 0.00035	21.4 ± 0.41
318.15 K, x1 = 0.85	1.38226 ± 0.00036	21.45 ± 0.41
318.15 K, x1 = 0.9	1.38306 ± 0.00036	21.5 ± 0.41
318.15 K, x1 = 0.95	1.38384 ± 0.00037	21.55 ± 0.41
318.15 K, x1 = 1	1.38458 ± 0.00037	21.6 ± 0.41
